{"source": "patent CN113813388A", "about": "“一种眼用纳米胶束及其制备方法和应用” (Zhejiang University ZJU, priority 2021, dated 2021)", "key": {"[1]": {"assay": "H2O2 (ROS) scavenging assay with hydrogen peroxide detection kit (S0038, Beyotime)", "assay_type": "biochemical", "settings": "within 15 min; Tempo concentration 100 μg/mL-1; 500 μM H2O2 in 0.01 M PBS pH 7.4"}, "[2]": {"settings": "after topical ocular administration; cited from earlier work"}}}
{"smiles": "CC1(C)CCCC(C)(C)N1[O]", "note": "[Tempo]", "values": [{"measurement": "eliminated H2O2", "setting": "[1]", "result": 78.9, "unit": "%"}, {"measurement": "rapidly cleared, time after application", "setting": "[2]", "result": "15 to 30", "unit": "s"}]}
